Structures can show the parent of a compound that is named as a salt.
Key:
hROMK (hKir1.1) = hROMK (hKir1.1) (Homo sapiens (Human), UniProt P48048); experiment: Thallium Flux Assay (ROMK channel functional thallium flux, FLIPR-Tetra); format: cell-based; details: HEK293 cells stably expressing hROMK (hKir1.1); read-out: Thallium Flux IC50
Kir1.1 (ROMK1) = Kir1.1 (ROMK1) (Homo sapiens (Human), UniProt P48048); experiment: Electrophysiology Assay (whole cell voltage clamp, IonWorks Quattro); format: cell-based; details: Chinese hamster ovary cells stably expressing Kir1.1; block during voltage step to 0 mV; read-out: Electrophysiology IC50
Method in brief: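 CHO cells stably expressing the channel, induced overnight with 1 mM sodium butyrate, were recorded in amphotericin-perforated patch mode. The test pulse was a 100 ms step to 0 mV from −70 mV, then a −70 to +70 mV ramp, applied before and after a 6 min compound incubation. Current amplitudes were compared.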

hROMK (hKir1.1), sequence (P48048 whole entry): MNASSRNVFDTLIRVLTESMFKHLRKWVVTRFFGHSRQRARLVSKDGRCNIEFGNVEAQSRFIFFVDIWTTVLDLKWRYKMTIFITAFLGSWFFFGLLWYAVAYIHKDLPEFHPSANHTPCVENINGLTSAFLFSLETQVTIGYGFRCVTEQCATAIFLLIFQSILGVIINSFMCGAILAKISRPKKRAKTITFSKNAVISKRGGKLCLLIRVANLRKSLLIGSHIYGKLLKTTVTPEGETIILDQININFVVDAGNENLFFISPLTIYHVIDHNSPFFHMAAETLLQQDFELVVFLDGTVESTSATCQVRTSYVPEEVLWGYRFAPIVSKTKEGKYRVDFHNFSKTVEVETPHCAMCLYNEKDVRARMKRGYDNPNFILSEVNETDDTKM
Kir1.1 (ROMK1), sequence (P48048 whole entry, species assumed): as the sequence (P48048 whole entry) above

SMILES	IC50 (hROMK (hKir1.1))	IC50 (Kir1.1 (ROMK1))
Cc1c([C@@H]2CN3CCN(CCc4ccc(-n5cnnn5)nc4)C[C@H]3CO2)ccc(F)c1C#N [Example 92]	270 nM	80 nM
Cc1c([C@H]2CN3CCN(CCc4ccc(-n5cnnn5)nc4)C[C@H]3CO2)ccc(F)c1C#N [Example 93]	80 nM	80 nM
COc1c(CCN2CCN3C[C@H](c4ccc5c(c4C)COC5=O)OC[C@H]3C2)ccc(C#N)c1F [Example 94]	240 nM	140 nM
COc1c(CCN2CCN3C[C@@H](c4ccc5c(c4C)COC5=O)OC[C@@H]3C2)ccc(C#N)c1F [Example 95]	120 nM	110 nM
COc1c(CCN2CCN3C[C@H](c4ccc5c(c4C)COC5=O)OC[C@@H]3C2)ccc(C#N)c1F [Example 96]	210 nM	80 nM
COc1cc(CCN2CCN3C[C@H](c4ccc5c(c4C)COC5=O)OC[C@H]3C2)c(F)cc1C#N [Example 97]	350 nM	280 nM
Cc1c([C@@H]2CN3CCN(CCc4cc(F)c(C#N)c(F)c4)C[C@H]3CO2)ccc2c1COC2=O [Example 98]	170 nM	90 nM
COc1cc(CCN2CCN3C[C@@H](c4ccc5c(c4C)COC5=O)OC[C@@H]3C2)cc(F)c1C#N [Example 99]	260 nM	210 nM
Cc1c([C@@H]2CN3CCN(C4CCc5cc(C#N)ccc5C4)C[C@H]3CO2)ccc2c1COC2=O (stereo partly drawn) [Example 100, (3R,9aS)-8-(6-cyano-1,2,3,4-tetrahydronaphthalen-2-yl)-3-(4-methyl-1-oxo-1,3-dihydro-2-benzofuran-5-yl)octahydropyrazino[2,1-c][1,4]oxazin-5-ium trifluoroacetate]	30 nM	210 nM
COc1cc(CCN2CCN3C[C@@H](c4ccc5c(c4C)COC5=O)NC[C@@H]3C2)ccc1C#N [Example 101, 2-Methoxy-4-(2-((7R,9aR)-7-(4-methyl-1-oxo-1,3-dihydroisobenzofuran-5-yl)hexahydro-1H-pyrazino[1,2-a]pyrazin-2(6H)-yl)ethyl)benzonitrile]	210 nM	100 nM
Cc1c([C@@H]2CN3CCN(CCc4ccc5c(c4)COC5=O)C[C@H]3CN2)ccc(F)c1C#N [Example 103]	140 nM	60 nM
Cc1c([C@H]2CN3CCN(CCc4ccc5c(c4)COC5=O)C[C@H]3CN2)ccc(F)c1C#N [Example 104]	110 nM	400 nM
Cc1c([C@@H]2CN3CCN(CCc4ccc5c(c4)COC5=O)C[C@@H]3CN2)ccc(F)c1C#N [Example 105]	290 nM	150 nM
Cc1c([C@H]2CN3CCN(CCc4ccc5c(c4)COC5=O)C[C@@H]3CN2)ccc(F)c1C#N [Example 106]	130 nM	50 nM
Cc1c([C@@H]2CN3CCN(C[C@H](O)c4ccc5c(c4)COC5=O)C[C@@H]3CN2)ccc(F)c1C#N [Example 107]	160 nM	200 nM
Cc1c([C@H]2CN3CCN(C[C@H](O)c4ccc5c(c4)COC5=O)C[C@@H]3CN2)ccc(F)c1C#N [Example 108]	100 nM	100 nM

Source: patent publication US9604998B2, “Inhibitors of the renal outer medullary potassium channel” (MERCK SHARP & DOHME CORP., priority 2013, dated 2017)
